Reference: patent publication US20230060873A1, “COMPOUNDS AND METHODS FOR FORMING ION CHANNELS IN BIOLOGICAL MEMBRANES” (Washington University, priority 2021, published 2023)
≈ marks a conversion by molar mass, not a printed value.

What was measured:
[1] = tested on: Bacillus subtilis; assay: Toxicity (MIC) of MAcBCE and MAkBCE compounds on B. subtilis; assay type: cell-based; settings: B. subtilis 168 WT with pRB374, 12 h, up to 400 μM
Method: XL1 blue strain Escherichia coli cells transformed with pET28a plasmid containing a kanamycin resistance gene, were grown at 37° C. in 2 mL of LB medium (Miller's LB broth, Research Products International) supplemented with 50 μg/mL of kanamycin, until the optical density (OD600) reached 0.6. The starting density of bacteria in the remainder of the experiments was a 1/100 dilution of this bacterial density, which was split into 4 mL cultures. A series of 400, 100, 10 and 5 mM stock solutions of each monoacylated benzo(crown-ether) (MAcBCE) and monoalkylated benzo(crown-ether) (MAkBCE) compounds in trifluoroethanol (TFE) were diluted by addition to the 4 mL cultures to reach final concentrations of 400, 200, 100, 50, 20, 15, 10, 5, 4, 3, 2 and 1 μM. The final TFE concentration was never higher than 0.1% v/v. Negative controls in the presence of TFE 0.1% v/v or in the absence of any treatment for each batch gave similar bacterial growth. The cultures were incubated at 37° C. with agitation for 12 h. Bacillus subtilis (168 WT) toxicity tests were carried out using an identical protocol, except they were transformed with the shuttle plasmid pRB374 in the presence of 5 μg/mL of kanamycin. […] Each compound was assayed a minimum of three times at each tested concentration.
The cytotoxicity of MABCE compounds was determined by measuring the MIC in liquid cultures of either the gram-negative bacteria Escherichia coli or the gram-positive bacteria Bacillus subtilis. […] As some curves overlap, portions of them are hidden. Values of MIC of 400 μM indicate that the value was either 400 μM, or it was higher and then was not determined. Each compound was assayed a minimum of three times at each different concentration. MICs for 5-A-4, 5-A-11, 6-A-11 and 6-O-11 could not be determined because the compounds were not soluble in TFE. While E. coli was not susceptible to any of the tested compounds at concentrations as high as 400 μM (data not shown), B. subtilis was susceptible to MABCE compounds bearing 15-crown-5 and 18-crown-6 scaffolds, but not to compounds containing a 12-crown-4 scaffold, as shown in FIG. 1.

[2] = tested on: B. subtilis membranes; assay: DiSC3(5) depolarization assay, MAcBCE/MAkBCE; assay type: cell-based, Bacillus subtilis; settings: 2 μM compound, 60 mM KCl, NaCl or NMDG-Cl; for change in DiSC3(5) fluorescence (membrane depolarization): 25° C, 10 minutes
Method: A 2 mL liquid culture of transformed B. subtilis cells was grown at 37° C. in LB medium supplemented with 5 μg/mL kanamycin until OD600=0.6 was reached. The cells were collected by centrifugation at 2000 rpm over 3 min. The bacteria were washed twice with an NMDG-MeSO3 solution (100 mM NMDG, 10 mM HEPES, pH adjusted to 7.4 with methane sulfonic acid). […] The working dye solution was a 200 μM solution of DiSC3(5) (3,3′-dipropylthiadicarbocyanine iodide; Tokyo Chemical Industry) in DMSO. A series of 2 M solutions of NMDG-Cl, NaCl and KCl were prepared containing 10 mM HEPES; the pH was adjusted to pH 7.4 with NMDG, NaOH or KOH, respectively, to avoid any pH changes after their addition. The experiment was initiated with 3 mL of NMDG-MeSO3 in a quartz cuvette, then 5 μL of the dye solution was added (timepoint t1, 50 sec) for a 0.3 μM final concentration by the end of experiment. This was followed by the addition of 100 μL of the B. subtilis suspension (timepoint t2, 100 sec). After 150 sec (timepoint t3, 250 sec), the fluorescence stabilized to a minimum intensity and 100 μL of the 2 M NMDG-Cl, NaCl or KCl solution was added to reach ˜60 mM final concentration of the salt. The final step was the addition 0.64 μL of a 10 mM stock solution of the desired MAcBCE or MAkBCE compound in TFE (timepoint t4, 400 sec), for a final concentration of 2 μM. Negative controls were performed by adding the same volume of pure TFE to the cuvette at timepoint t4. Fluorescence intensity was recorded each second using a Horiba Fluoromax 4 spectrometer (λexcitation=640 nm; λemission=670 nm). The solution inside the cuvette was vigorously mixed throughout the experiment by using a magnetic stirrer and the temperature was kept constant at 25° C. For purposes of normalization, the fluorescence intensity was divided by the fluorescence level just before timepoint t2.
To determine whether MAcBCE or MAkBCE compounds catalyse ion-selective flux, a set of highly bioactive members bearing ten-carbon chain lengths were tested for their ability to depolarize B. subtilis membranes using a test based on the fluorescent dye 3,3-dipropylthiadicarbocyanine (DiSC3(5)). This set of compounds were selected as four of the most toxic members of the MAcBCE and MAkBCE compound library (5-O-10, 5-A-10, 6-O-10, and 6-A-10; FIG. 3) belong to this group and all are soluble in TFE. The two non-toxic benzo(12-crown-4) scaffold members (4-O-10 and 4-A-10; FIG. 3) were used as controls.
FIGS. 4 and 5 show the time course of DiSC3(5) fluorescence due to the addition of 2 μM 6-A-10 (FIG. 4) and 6-O-10 (FIG. 5). The average of the final fluorescence values (mean±S.E.M.) of at least three experiments are shown in FIGS. 4 and 5 and are similarly plotted for 4-A-10 (FIG. 6), 5-A-10 (FIG. 7), 6-A-10 (FIG. 8), 4-O-10 (FIG. 9), 5-O-10 (FIG. 10), and 6-O-10 (FIG. 11). Experiments were performed in a NMDG-MeSO3 solution (100 mM NMDG, 10 mM HEPES, pH adjusted to 7.4 with methane sulfonic acid). The events are: t1, addition of dye; t2, addition of B. subtilis; t3, addition of a 2 M NMDG-Cl, 2 M NaCl or a 2 M KCl solution up to a final concentration of 60 mM; t4, addition of each MAcBCE or MAkBCE compound up to 2 μM. Experiments were repeated at least four times per condition and normalized relative to the fluorescence intensity just before the addition of cells.
The potentiometric dye DiSC3(5) was used to measure the ability of MAcBCE and MAkBCE compounds to catalyse ion-selective transport. DiSC3(5) undergoes membrane voltage-dependent partitioning between the intracellular and the extracellular medium. DiSC3(5) accumulates within a cell with a polarized membrane (negatively charged inside the cell) and is released when the cell membrane is depolarized (positively charged inside the cell). The membrane voltage in B. subtilis is roughly −120 mV, leading to DiSC3(5) accumulation in the bacteria (timepoint t2 in FIG. 4A-B). […]

[3] = Solubility in trifluoroethanol (TFE); assay type: physicochemical; settings: trifluoroethanol stock solutions
[4] = tested on: Bacillus subtilis; assay: Toxicity (MIC) of dialkylated lariat ethers on B. subtilis; assay type: cell-based; settings: B. subtilis 168 WT, 12 h, visual turbidity, read-out: minimum inhibitory concentration (MIC)
Method: The cyto-toxicity was determined by measuring the minimum inhibitory concentrations (MIC) for this series of dialkylated lariat ethers in the Gram-negative bacteria Escherichia coli, the Gram-positive bacteria Bacillus subtilis, and human embryonic kidney (HEK293T) cells.
On bacteria. XL1 blue strain Escherichia coli cells transformed with a pET28a plasmid (which contains a kanamycin resistance gene) were grown at 37° C. in 2 mL of LB medium (Miller's LB broth, Research Products International) supplemented with 50 μg/mL of kanamycin until the optical density (600 nm) reached 0.600. The starting density of bacteria in the remainder of the experiments was a 1/100 dilution of this bacterial density, which was split into 4 mL cultures. A series of 400, 100, 10 and 5 mM stock solutions of each dialkylated diaza(18-crown-6) compounds in trifluoroethanol (TFE) were diluted by adding to the 4 mL cultures until final concentrations of 400, 200, 100, 50, 20, 15, 10, 5, 4, 3, 2 and 1 μM were reached, with the final TFE concentration never >0.1% v/v. Negative controls in the presence of TFE 0.1% v/v or the absence of any treatment were done for each batch. The cultures were incubated at 37° C. with agitation for 12 h. Bacillus subtilis (168 WT) toxicity tests were carried out using an identical protocol, except for the addition of the antibiotic. […] Each compound was assayed a minimum of three times at each tested concentration.

[5] = Planar lipid bilayer ion channel recordings; assay type: biochemical; settings: 2 μM; bilayer clamped at 100 mV; 150 mM KCl, 10 mM HEPES, pH 7.4
Method: Experiments in planar lipid bilayers were performed via a Nanion Orbit-mini planar bilayer system. The planar membranes were formed by painting a 25 mg/mL solution of lipids in n-nonane over the four 50 μm apertures on the chip. The lipids used were asolectin from soybean (Sigma-Aldrich) or a 3:1 w/w mix of 1-palmitoyl-2-oleoyl-sn-glycero-3-phosphoethanolamine (POPE) and 1-palmitoyl-2-oleoyl-sn-glycero-3-phospho-(1′-rac-glycerol) (POPG) (Avanti Polar lipids). The solutions tested were KCl solution (150 mM KCl, 10 mM HEPES, pH adjusted to 7.4 with KOH), NaCl solution (150 mM NaCl, 10 mM HEPES, pH adjusted to 7.4 with NaOH), and a concentrated KCl solution (500 mM KCl, 10 mM HEPES, pH adjusted to 7.4 with KOH). When the appropriate membrane formed, the voltage was clamped at 100 mV or −100 mV, and a stock solution of gramicidin D (Sigma-Aldrich) in DMSO or LEC10 in TFE were added up to the desired concentration. The tested concentration of gramicidin D was 1 nM and 2, 10, 100 and 200 μM were tested for LEC10. Two different temperatures were tested for each condition: 25 and 37° C. The current was recorded over 10 min for the gramicidin test and up to 1 h for the LEC10 test. The data was analyzed with Clampfit 10.7 software (Axon Instruments).
FIGS. 41 and 42 show the lipid bilayer recordings. Current through the asolectin planar lipid bilayer clamped at 100 mV was recorded in the presence of […] (FIG. 41) and 2 μM LEC10 (FIG. 42). In both cases, the solution was 150 mM KCl, 10 mM HEPES, pH 7.4. […] This lack of unitary channel formation, or even a carrier-like increase of the conductance, precludes an ionophore-like mechanism of ion transport.

| Molecule | toxicity / susceptibility of B. subtilis (MIC, FIG. 1) [1] | solubility in TFE [3] | further results |
| --- | --- | --- | --- |
| CCCCCCCCCCc1ccc2c(c1)OCCOCCOCCO2 [Compound 4-A-10, 12-decyl-2,3,5,6,8,9-hexahydrobenzo[b][1,4,7,10]tetraoxacyclododecine] | non-toxic |  | change in DiSC3(5) fluorescence (membrane depolarization) [2]: negligible |
| CCCCCCCCCC(=O)c1ccc2c(c1)OCCOCCOCCO2 [Compound 4-O-10, 1-(2,3,5,6,8,9-hexahydrobenzo[b][1,4,7,10]tetraoxacyclododecin-12-yl)decan-1-one] | non-toxic |  | change in DiSC3(5) fluorescence (membrane depolarization) [2]: negligible |
| CCCCc1ccc2c(c1)OCCOCCOCCOCCO2 [Compound 5-A-4, 15-butyl-2,3,5,6,8,9,11,12-octahydrobenzo[b][1,4,7,10,13]pentaoxacyclopentadecine] |  | not soluble |  |
| CCCCCCCCCCc1ccc2c(c1)OCCOCCOCCOCCO2 [Compound 5-A-10, 15-decyl-2,3,5,6,8,9,11,12-octahydrobenzo[b][1,4,7,10,13]pentaoxacyclopentadecine] | most toxic |  | kinetics of the depolarization, ion dependence [2]: fastest in presence of K^+ followed by Na^+ and then NMDG^+ |
| CCCCCCCCCCCc1ccc2c(c1)OCCOCCOCCOCCO2 [Compound 5-A-11, 15-undecyl-2,3,5,6,8,9,11,12-octahydrobenzo[b][1,4,7,10,13]pentaoxacyclopentadecine] |  | not soluble |  |
| CCCCCCCCCC(=O)c1ccc2c(c1)OCCOCCOCCOCCO2 [Compound 5-O-10, 1-(2,3,5,6,8,9,11,12-octahydrobenzo[b][1,4,7,10,13]pentaoxacyclopentadecin-15-yl)decan-1-one] | most toxic |  | kinetics of the depolarization, ion dependence [2]: fastest in presence of K^+ followed by Na^+ and then NMDG^+ |
| CCCCCCCCCCCc1ccc2c(c1)OCCOCCOCCOCCOCCO2 [Compound 6-A-11, 18-undecyl-2,3,5,6,8,9,11,12,14,15-decahydrobenzo[b][1,4,7,10,13,16]hexaoxacyclooctade-cine] |  | not soluble |  |
| CCCCCCCCCCC(=O)c1ccc2c(c1)OCCOCCOCCOCCOCCO2 [Compound 6-O-11, 1-(2,3,5,6,8,9,11,12,14,15-decahydrobenzo[b][1,4,7,10,13,16]hexaoxacyclooctadecin-18-yl)undecan-1-one] |  | not soluble |  |
| CCCCCCCCCCCN1CCOCCOCCN(CCCCCCCCCCC)CCOCCOCC1 [LEC11, Diundecyl diaza(18-crown-6)] |  |  | MIC [4]: 2 µM (≈ 1.14 µg/mL) |
| CCCCCCCCCCCCN1CCOCCOCCN(CCCCCCCCCCCC)CCOCCOCC1 [LEC12, Didodecyl diaza(18-crown-6)] |  |  | MIC [4]: 2 µM (≈ 1.2 µg/mL) |
| CCCCCCCCCCCCCN1CCOCCOCCN(CCCCCCCCCCCCC)CCOCCOCC1 [LEC13, Ditridecyl diaza(18-crown-6)] |  |  | MIC [4]: > 400 µM |
| gramicidin D |  |  | ion channel activity [5]: unitary channels |
